{
  "source": "ChEMBL document CHEMBL1142859",
  "about": "“Synthesis and characterization of a platinum(II) complex tethered to a ligand of the peripheral benzodiazepine receptor” (J Med Chem, 2007)",
  "biological_target": "Translocator protein (Rattus norvegicus, UniProt P16257)",
  "sequence (P16257 whole entry, looked up)": "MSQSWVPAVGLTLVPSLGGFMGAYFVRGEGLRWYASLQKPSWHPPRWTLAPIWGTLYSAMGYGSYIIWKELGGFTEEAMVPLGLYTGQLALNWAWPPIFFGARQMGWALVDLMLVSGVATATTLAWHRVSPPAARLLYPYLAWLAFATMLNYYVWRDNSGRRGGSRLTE",
  "assay": "Displacement of [3H]PK 11195 from PBR in Sprague-Dawley rat cerebral cortex",
  "format": "tissue-based",
  "data": [
    {"smiles": "CCCN(CCC)C(=O)Cc1c(-c2nccs2)nc2c(Cl)cc(Cl)cn12", "values": [
      {"measurement": "IC50", "result": 2.81, "unit": "nM"}
    ]}
  ]
}
